Assay results as given in article PMC9695012, “Diastereoselective Synthesis of Novel Spiro-Phosphacoumarins and Evaluation of Their Anti-Cancer Activity” (International Journal of Molecular Sciences, 2022).

Assays:
HuTu 80 cells [1] = assay: Cell cycle analysis by flow cytometry; type: cell-based, human; settings: 24 h; for cells in G1/G0 phase: control 77%
Method: Taking into account the high potency and selectivity of the compound 2a, some additional experiments were carried out to study in more details its anti-cancer action. The mechanism of action of cytotoxic agents is often associated with cell cycle arrest, which leads to a slowing down of cell proliferation. So, we have performed a cell cycle analysis for the HuTu 80 cells using flow cytometry. […] Meanwhile, the proportion of cells in S phase decreased almost by half (8.2% vs. 4.7%).

HuTu 80 cells [2] = assay: Mitochondrial membrane potential, JC-10 flow cytometry; type: cell-based, human; settings: IC50/2 and IC50, more pronounced at IC50/2
Method: The possibility of apoptosis through the mitochondrial pathway was assessed by flow cytometry using the JC-10 fluorescent dye (in the Mitochondria Membrane Potential Kit). In normal cells with a high membrane potential, JC-10 accumulates in the mitochondrial matrix, where it forms aggregates with a red fluorescence. However, in apoptotic cells, a decrease in the membrane potential occurs. JC-10 diffuses from mitochondria and turns into a monomeric form, emitting a green fluorescence, which is recorded by a flow cytometer (Figure 4). […] As in the experiment with V-Alexa Fluor 647, the cytotoxic effect of compound 2a was more pronounced at IC50/2 concentration.
Cells were harvested at 2000 rpm for 5 min and then washed twice with ice-cold PBS, followed by resuspension in JC-10 (10 µg/mL) and incubation at 37 °C for 10 min. After the cells were rinsed three times and suspended in PBS, the JC-10 fluorescence was observed by flow cytometry (Guava easy Cyte, MERCK, Rahway, NJ, USA).

Chang Liver [3] = settings: relative to 5-fluorouracil
HuTu 80 [4] = settings: for SI, HuTu 80: selectivity index vs Chang liver normal cells, ns = no selectivity
Chang Liver [5] = assay: cells; settings: Homo sapiens, read-out: IC50, Chang Liver
HuTu 80 cells [6] = assay: Apoptosis induction, annexin V-Alexa Fluor 647 / propidium iodide flow cytometry; type: cell-based, human; settings: 24-h incubation, most active at IC50/2 (12.5 µM), early apoptosis stage
Method: Cell Culture. HuTu 80 cells at 1 × 10^6 cells/well in a final volume of 2 mL were seeded into six-well plates. After 24 h of incubation, various concentrations of compound 2a were added to wells.
Cell Apoptosis Analysis. The cells were harvested at 2000 rpm for 5 min and then washed twice with ice-cold PBS, followed by resuspension in binding buffer. Next, the samples were incubated with 5 μL of annexin V- Alexa Fluor 647 (Sigma-Aldrich, St. Louis, MO, USA) and 5 μL of propidium iodide for 15 min at room temperature in the dark. Finally, the cells were analyzed by flow cytometry (Guava easy Cyte, MERCK, Rahway, NJ, USA) within 1 h. The experiments were repeated three times.

MCF-7 = assay: cells; type: cell-based, human; settings: for IC50: Homo sapiens, MCF7, MTT, cancer cell line, three independent experiments; for SI, MCF-7: selectivity index vs Chang liver normal cells, ns = no selectivity
M-HeLa = assay: cells; type: cell-based, human; settings: for IC50: Homo sapiens, M-HeLa, MTT, cancer cell line, three independent experiments; for SI, M-HeLa: selectivity index vs Chang liver normal cells, ns = no selectivity
HuTu 80 cells [7] = assay: Intracellular ROS, CellROX Deep Red flow cytometry; type: cell-based, human; settings: for CellROX Deep Red fluorescence intensity (ROS production): control 700
Description: An increase in the production of reactive oxygen species (ROS) by compounds also characterizes the development of apoptosis along the mitochondrial pathway. Mitochondria are a potential source and target of ROS. ROS leads to dysfunction of the mitochondria and, consequently, to irreversible cell damage. In this regard, the effect of the lead compound 2a in HuTu 80 cells on ROS production was investigated using a flow cytometry assay and the CellROX® Deep Red flow cytometry kit. The data presented in Figure 6 show a significant increase in CellROX® Deep Red fluorescence intensity dominated by IC50/2.
HuTu 80 cells were incubated with compound 2a at concentrations of IC50 for 24 h. ROS generation was investigated using flow cytometry assay and CellROX® Deep Red flow cytometry kit. For this HuTu 80 cells were harvested at 2000 rpm for 5 min and then washed twice with ice-cold PBS, followed by resuspension in 0.1 mL of medium without FBS, to which was added 0.2 μL of CellROX® Deep Red and incubated at 37 °C for 30 min After being washed three times, the cells were suspended in PBS, and the production of ROS in the cells was immediately monitored using a flow cytometer Guava easy Cyte, MERCK, Rahway, NJ, USA).

HuTu 80 [8] = assay: cells; settings: Homo sapiens, HuTu80, read-out: IC50, HuTu 80
Solubility in water = type: physicochemical; settings: in words; reason for exclusion from cytotoxicity studies

SMILES	SI, HuTu 80 (HuTu 80 [4])	IC50 (Chang Liver [5]) [µM]	IC50 (MCF-7) [µM]	IC50 (M-HeLa) [µM]	SI, M-HeLa (M-HeLa)	IC50 (HuTu 80 [8]) [µM]	melting point [°C]	SI, MCF-7 (MCF-7)	also measured
Cc1cc(C)c2c(c1C)OP(=O)(O)[C@@H]1CN(C)C3(C(=O)c4ccccc4C3=O)[C@H]21 [2a, (3aS,9bS)-4-hydroxy-2,6,7,9-tetramethyl-2,3,3a,9b-tetrahydrospiro[benzo [5,6][1,2]oxaphosphinino [3,4-c]pyrrole-1,2’-indene]-1’,3’-dione 4-oxide]	>32	> 800	82.3 ± 7.5	52.6 ± 4.1	>15	25.1 ± 1.9	> 300	–	effect on cell cycle (in words) (HuTu 80 cells [1]; 12.5 and 25 µM): induces G0/G1 phase arrest; cells in S phase (HuTu 80 cells [1]; IC50 (25 µM), control 8.2%): 4.7%; cells in G1/G0 phase (HuTu 80 cells [1]; IC50 (25 µM)): 81.0%; cells in G1/G0 phase (HuTu 80 cells [1]; IC50/2 (12.5 µM)): 79.0%; effect on mitochondrial membrane potential (in words) (HuTu 80 cells [2]): significant decrease; cytotoxicity against Chang liver normal cell line, fold lower than reference compound (Chang Liver [3]): more than 10 fold; cytotoxicity against HuTu 80 cell line, fold higher than reference 5-fluorouracil (HuTu 80 [4]; relative to 5-fluorouracil): ~2.6 fold; induction of apoptosis (in words) (HuTu 80 cells [6]): begins to induce apoptosis; CellROX Deep Red fluorescence intensity (ROS production) (HuTu 80 cells [7]; IC50 (25 µM)): 1500; CellROX Deep Red fluorescence intensity (ROS production) (HuTu 80 cells [7]; IC50/2 (12.5 µM)): 2000; effect on ROS production (in words) (HuTu 80 cells [7]; IC50/2 and IC50, dominated by IC50/2): increase in ROS production
CN1c2c(c(=O)oc3ccccc23)CC12C(=O)c1ccccc1C2=O	–	–	–	–	–	–	> 300	–	–
O=c1[nH]cc(F)c(=O)[nH]1 [5-fluorouracil, reference compound]	1.3	–	16.7 ± 1.3	62 ± 4.7	1.4	65.2 ± 5.6	–	5	–
CN1C[C@@H]2[C@@H](c3c(O)c(Cl)cc(Cl)c3OP2(=O)O)C12C(=O)c1ccccc1C2=O [2c, (3aS,9bS)-6,8-dichloro-4,9-dihydroxy-2-methyl-2,3,3a,9b-tetrahydrospiro[benzo [5,6][1,2]oxaphosphinino [3,4-c]pyrrole-1,2’-indene]-1’,3’-dione 4-oxide]	ns	> 100	77.6 ± 6.2	> 100	ns	100 ± 8.4	> 300	ns	–
COc1ccc2c(c1)OP(=O)(O)[C@@H]1CN(C)C3(C(=O)c4ccccc4C3=O)[C@H]21 [2b, (3aS,9bS)-4-hydroxy-7-methoxy-2-methyl-2,3,3a,9b-tetrahydrospiro[benzo [5,6][1,2]oxaphosphinino [3,4-c]pyrrole-1,2’-indene]-1’,3’-dione 4-oxide]	1.2	62 ± 5.5	> 100	59.7 ± 4.6	1	53.4 ± 4.2	–	ns	–
O=C1c2ccccc2C(=O)C12[C@@H]1c3ccc4cc(Br)ccc4c3OP(=O)(O)[C@@H]1[C@H]1CCCN12 [2g, (8a’S,8b’R,13a’S)-4’-bromo-8’-hydroxy-8a’,8b’,9’,10’,11’,13a’-hexahydrospiro[indene-2,13’-naphtho [2’,1’:5,6][1,2]oxaphosphinino [3,4-a]pyrrolizine]-1,3-dione 8’-oxide]	–	–	–	–	–	–	> 300	–	solubility in water (Solubility in water): extremely low
O=C1c2ccccc2C(=O)C12[C@@H]1c3ccc4ccccc4c3OP(=O)(O)[C@@H]1[C@H]1CCCN12 [2f, (8a’S,8b’R,13a’S)-8’-hydroxy-8a’,8b’,9’,10’,11’,13a’-hexahydrospiro[indene-2,13’-naphtho [2’,1’:5,6][1,2]oxaphosphinino [3,4-a]pyrrolizine]-1,3-dione 8’-oxide]	–	–	–	–	–	–	> 300	–	solubility in water (Solubility in water): extremely low
Cc1cc(C)c2c(c1C)OP(=O)(O)[C@@H]1[C@H]3CCCN3C3(C(=O)c4ccccc4C3=O)[C@H]21 [2e, (6aS,6bR,11aS)-6-hydroxy-1,3,4-trimethyl-6a,6b,7,8,9,11a-hexahydrospiro[benzo [5,6][1,2]oxaphosphinino [3,4-a]pyrrolizine-11,2’-indene]-1’,3’-dione 6-oxide]	ns	> 100	> 100	> 100	ns	> 100	> 300	ns	–
CN1C[C@@H]2[C@@H](c3ccc4ccccc4c3OP2(=O)O)C12C(=O)c1ccccc1C2=O [2d, (3a’S,11a’S)-11’-hydroxy-2’-methyl-1’,2’,3a’,11a’-tetrahydrospiro[indene-2,3’-naphtho [2’,1’:5,6][1,2]oxaphosphinino [3,4-c]pyrrole]-1,3-dione 11’-oxide]	ns	57 ± 4.3	92.2 ± 8.3	60 ± 5.4	ns	82.6 ± 7.6	> 300	ns	–
